Data on three molecules can be found in patent US10562848B2, “Inhibitors of TNF superfamily costimulatory interactions and methods for uses of the same” (UNIVERSITY OF MIAMI, priority 2015, dated 2020).

SMILES strings stand for the structures. Read-outs that look alike come from different tables or passages of the source.

Assay [1] relates to CD40L-induced NF-κB activation in CD40 sensor cells (HEK Blue). Description: Inhibition of CD40L-induced NF-κB activation in CD40 sensor cells (HEK-Blue). Type of assay: cell-based, human. Particulars: for IC50: Homo sapiens, CD40L 20 ng/mL, 18 h. The text has this: Activities of the compounds of the disclosure were confirmed in cell-based assays. As a first example, TNF-R1 and CD40 expressing sensor cells (HEK-Blue; InvivoGen, San Diego, Calif.) were used as described in the literature (see Song et al., Br J Pharmacol 171:4955-4969 (2014) and Cechin et al., Steroids 85:36-43 (2014)).
Cells were maintained in DMEM at 80% confluence for each experiment. Cells were trypsinized and re-suspended in the same medium with 1% FBS and seeded on 96-well microtiter plates at a density of 1×10^5 cells/well in the absence and presence of various concentrations of compounds diluted in the same media. For ligand mediated stimulation, final concentrations of recombinant human TNFα (2 ng/mL) and CD40L (20 ng/mL) were maintained in the wells for this purpose. After 18-hour incubation at 37° C., 20 μL supernatant of each well were taken and added to another 96-well microtiter plate containing 180 μL/well of QUANTI-Blue (InvivoGen, CA). The level of SEAP was determined after 30-minute incubation at 37° C. by reading at 625 nm using a spectrophotometer. […] Data are average±SD (normalized to CD40L-activated cells alone) for n=4 independent experiments with duplicates for each condition.

Another assay has as its target T1, human CD40-CD40L (Homo sapiens, UniProt P29965).
T1 construct: purchased Enzo Life Sciences (San Diego, Calif.)
T1 sequence (P29965 116-261 limits assumed): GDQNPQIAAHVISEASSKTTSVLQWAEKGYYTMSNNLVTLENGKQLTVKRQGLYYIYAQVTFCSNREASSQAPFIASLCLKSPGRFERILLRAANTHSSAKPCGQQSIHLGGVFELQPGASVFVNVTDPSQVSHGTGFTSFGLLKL
Description: Cell-free ELISA-type CD40-CD40L binding inhibition assay. How it is done: Compounds according to the disclosure were assessed for their ability to inhibit the binding of tagged ligands to plate-bound receptors using ELISA-type 96-well plate-based cell-free assays as described in the literature (see Margolles-Clark et al, J Mol Med 87:1133-1143 (2009); Margolles-Clark et al., Chem Biol Drug Des 76:305-313 (2010); Song et al., Br J Pharmacol 171:4955-4969 (2014); and Ganesan et al., Biochem Pharmacol 81:810-818 (2011)).
Recombinant receptors (hCD40:Fc, TNF-R1:Fc) and tagged ligands (hCD154, MegaCD40L, and TNF-α), were obtained from Enzo Life Sciences (San Diego, Calif.). Microtiter plates (Nunc F Maxisorp; 96-well) were coated overnight at 4° C. with 100 μL/well of Fc chimeric receptors diluted in PBS 7.2. This was followed by blocking with 200 μL/well of blocking solution (PBS 7.2, 0.05% Tween-20, 1% BSA) for 1 hour at room temperature. […] Either anti-FLAG-HRP or streptavidin-HRP conjugate was used to detect the bound FLAG-tagged or biotinylated ligand, respectively. Plates were washed three times before the addition of 120 μL/well of HRP substrate TMB (3, 3′, 5, 5′-tetramethylbenzidine) and kept in the dark for 15-30 min. The reaction was stopped using 30 μL 1M H2SO4, and the absorbance was read at 450 nm. Stock solutions of compounds at 10 mM in DMSO were used.
Typical concentrations used were as follows—receptors: 0.3 μg/mL for CD40, TNF-R1, and RANK; 0.6 μg/mL for BAFF-R, OX40, and 4-1BB; and 2 μg/mL for EGF-R-ligands: 0.02 μg/mL for CD40L, TNFα, and RANKL; 0.2 μg/ml for BAFF, OX40L, 4-1BBL; and 0.3 μg/mL for EGF. Assays were done in duplicate or triplicate per plate and repeated at least three times; the averaged data were normalized and used for data fitting and analysis. Binding data were fitted using the standard log inhibitor versus response model in GraphPad Prism to determine the corresponding IC50 values.

Assay [2] deals with Balb/c skin grafts in C57BL/6 mice. Kind of assay: Skin allograft survival model. Type of assay: in vivo, mouse. The conditions noted are these: CTLA4-Ig plus 21045 30 mg/kg daily s.c. in 20% HPβCD.
Description: Full-thickness ear skins from donor mice (Balb/c, Jackson Laboratory; Bar Harbor, Me.) were transplanted onto the dorsal thorax of recipient mice (C57BL/6, Jackson Laboratory) by placing them on ˜1 cm diameter graft beds and securing with bandages.
The mark [3] stands for this setting: IC50, inhibition of the CD40-CD40L interaction, cell-free binding, n=3 independent experiments.

Regarding `O=C(Nc1ccc(-c2ccc(C(=O)Nc3cccc4cccc(S(=O)(=O)O)c34)cc2)cc1)c1ccc([N+](=O)[O-])cc1` [Compound 21041, 8-[(4′-[4-nitrobenzamido]biphenyl-4-yl-carbonyl)amino]naphthalene-1-sulfonic acid], the “inhibition of CD40L-induced NF-κB activation (in words)” value in assay [1] is “concentration-dependent inhibition”. Moreover, the IC50 was determined as 10000 nM in assay [1]; 310 nM at human CD40-CD40L (setting [3]); 300 nM at human CD40-CD40L (IC50 CD40, Table 2). Also, the “inhibition of human CD40-CD40L binding (in words)” value at human CD40-CD40L (cell-free binding) is reported as “concentration-dependent inhibition”.

Regarding `COC(=O)c1ccc(C(=O)Nc2ccc(-c3ccc(C(=O)Nc4cccc5cccc(S(=O)(=O)O)c45)cc3)cc2)cc1` [Compound 21045], the “inhibition of CD40L-induced NF-κB activation (in words)” value in assay [1] was “concentration-dependent inhibition”. In addition, the IC50 stood at 17000 nM in assay [1]; 100 nM on human CD40-CD40L (Table 2, read-out: IC50 CD40); 140 nM at human CD40-CD40L (cell-free binding, n=3 independent experiments, read-out: IC50, inhibition of the CD40-CD40L interaction). Besides, in assay [2], the “mean survival time (MST) of skin grafts” value worked out at 15 days. Also, the “inhibition of human CD40-CD40L binding (in words)” value at human CD40-CD40L (cell-free binding) was “concentration-dependent inhibition”.

With `O=C(Nc1ccc(-c2ccc(C(=O)Nc3ccc(C(=O)O)c4ccccc34)cc2)cc1)c1ccc([N+](=O)[O-])cc1` [Compound 25441], the “inhibition of CD40L-induced NF-κB activation (in words)” value in assay [1] is “concentration-dependent inhibition”. In addition, the IC50 in assay [1] turned out to be 9000 nM; at human CD40-CD40L (setting [3]), 360 nM; on human CD40-CD40L (Table 2, read-out: IC50 CD40), 400 nM. Besides, the “inhibition of human CD40-CD40L binding (in words)” value at human CD40-CD40L (cell-free binding) was “concentration-dependent inhibition”.
